ChEMBL document CHEMBL4251621, “Design, synthesis and QSAR study of novel isatin analogues inspired Michael acceptor as potential anticancer compounds” (Eur J Med Chem, 2018)
The source made the active and inactive calls. The calls are words filed in the database; no cut-off is given here.

How the values were obtained:
[1] = test system: BGC-823; assay: Cytotoxicity against human BGC823 cells assessed as cell growth inhibition after 72 hrs by MTT assay; type: functional, cell-based; details: BGC-823, 72 h
[2] = test system: NCI-H460; assay: Cytotoxicity against human NCI-H460 cells assessed as cell growth inhibition after 72 hrs by MTT assay; type: functional, cell-based; details: NCI-H460, 72 h
[3] = test system: SGC-7901; assay: Cytotoxicity against human SGC7901 cells assessed as cell growth inhibition after 72 hrs by MTT assay; type: functional, cell-based; details: SGC-7901, 72 h
[4] = test system: NCI-H460; assay: Cell cycle arrest in human NCI-H460 cells assessed as accumulation at G2/M phase at 5 to 20 uM after 48 hrs by propidium iodide staining-based flow cytometry; type: functional
[5] = test system: NCI-H460; assay: Growth inhibition of human NCI-H460 cells assessed as reduction in cell viability at 5 to 10 uM incubated for 24 to 72 hrs by MTT assay; type: functional, cell-based
[6] = test system: Mus musculus; assay: Toxicity in BALB/C nu nude mouse xenografted with human NCI-H460 cells assessed as weight loss at 15 mg/kg, ip administered everyday for 15 days measured every 2 days; type: organism-based; details: in vivo
[7] = test system: Mus musculus; assay: Toxicity in BALB/C nu nude mouse xenografted with human NCI-H460 cells assessed as histopathological changes in lung at 15 mg/kg, ip administered everyday for 15 days by hematoxylin and eosin staining based light microscopic analysis; type: organism-based; details: in vivo, 360 h
[8] = test system: NCI-H460; assay: Anti-growth activity against human NCI-H460 cells assessed as reduction in colony formation after 18 hrs by crystal violet-based colony forming assay; type: functional, cell-based
[9] = test system: Mus musculus; assay: Toxicity in BALB/C nu nude mouse xenografted with human NCI-H460 cells assessed as induction of abnormal behavior at 15 mg/kg, ip administered everyday for 15 days; type: organism-based; details: in vivo, 360 h
[10] = test system: Mus musculus; assay: Toxicity in BALB/C nu nude mouse xenografted with human NCI-H460 cells assessed as histopathological changes in liver at 15 mg/kg, ip administered everyday for 15 days by hematoxylin and eosin staining based light microscopic analysis; type: organism-based; details: in vivo, 360 h
[11] = test system: NCI-H460; assay: Anti-migratory activity against human NCI-H460 cells incubated for 48 hrs by wound healing assay; type: functional, cell-based
[12] = test system: NCI-H460; assay: Induction of apoptosis in tumor of human NCI-H460 cells xenografted in BALB/C nu nude mouse assessed as downregulation of bcl2 expression at 15 mg/kg, ip administered everyday for 15 days by Western blot analysis; type: functional, organism-based
[13] = test system: NCI-H460; assay: Antitumor activity against human NCI-H460 cells xenografted in BALB/C-nu nude mouse assessed as reduction in tumor growth at 15 mg/kg, ip administered every day for 15 days; type: functional, organism-based
[14] = test system: NCI-H460; assay: Anti-growth activity against human NCI-H460 cells assessed as reduction in colony formation at 10 uM after 48 hrs by crystal violet-based colony forming assay; type: functional, cell-based
[15] = test system: NCI-H460; assay: Anti-migratory activity against human NCI-H460 cells at 10 uM incubated for 48 hrs by wound healing assay; type: functional, cell-based
[16] = test system: NCI-H460; assay: Anti-migratory activity against human NCI-H460 cells at 20 uM incubated for 48 hrs by wound healing assay; type: functional, cell-based
[17] = test system: NCI-H460; assay: Anti-growth activity against human NCI-H460 cells assessed as reduction in colony formation at 20 uM after 18 hrs by crystal violet-based colony forming assay; type: functional, cell-based

SMILES	IC50 [1]	IC50 [2]	IC50 [3]	further results
O=C1Nc2ccccc2/C1=C\C(=O)c1cc(F)cc(F)c1	15.7 µM	13.3 µM	17.6 µM	
O=C1Nc2ccccc2/C1=C\C(=O)c1cccc(Cl)c1	7.7 µM	9.8 µM	8.4 µM	
C=CC(=O)Nc1cccc(C(=O)/C=C2/C(=O)Nc3ccccc32)c1	3.6 µM	3.2 µM	5.7 µM	Activity [4]: Active; Activity [5]: Dose-dependent effect; growth inhibition (GI) ([5]; TDE = time-dependent effect): Tde; Activity [6]: Non-Toxic; Activity [7]: Non-Toxic; Activity [8]: Dose-dependent effect; Activity [9]: Non-Toxic; Activity [10]: Non-Toxic; Activity [11]: Dose-dependent effect; Activity [12]: Active; TGI [13]: Active
CC(C)C(=O)Nc1cccc(C(=O)/C=C2/C(=O)Nc3ccccc32)c1	6.2 µM	9.7 µM	8.6 µM	
CCC(=O)Nc1cccc(C(=O)/C=C2/C(=O)Nc3ccccc32)c1	7.5 µM	10.3 µM	11.5 µM	
COc1ccc(C(=O)/C=C2/C(=O)Nc3ccccc32)cc1	19.8 µM	5.5 µM	23.2 µM	
O=C1Nc2ccccc2/C1=C\C(=O)c1ccccc1	13.2 µM	10.4 µM	9.3 µM	
COc1ccc(C(=O)/C=C2/C(=O)Nc3ccccc32)c(OC)c1	9.2 µM	5.4 µM	11.5 µM	
O=C1Nc2ccccc2/C1=C\C(=O)c1ccccc1Br	9.5 µM	11 µM	13.1 µM	
Nc1cccc(C(=O)/C=C2/C(=O)Nc3ccccc32)c1	29.9 µM	20.4 µM	14.4 µM	
O=C1Nc2ccccc2/C1=C\C(=O)c1cc(Cl)ccc1Cl	53.7 µM	61.6 µM	56.3 µM	
O=C1Nc2ccccc2/C1=C\C(=O)c1ccc(Cl)c(Cl)c1	13.2 µM	13.7 µM	17.8 µM	
COc1cc(O)c(CC=C(C)C)c(O)c1C(=O)/C=C/c1ccc(O)cc1 [XANTHOHUMOL]	7.8 µM	6.9 µM	10 µM	Activity [14]: Active; growth inhibition (GI) [5]: Active; Activity [15]: Active
Nc1c(Cl)cc(C(=O)/C=C2/C(=O)Nc3ccccc32)cc1Cl	8.5 µM	6.2 µM	11.9 µM	
O=C1Nc2ccccc2/C1=C\C(=O)c1ccc([N+](=O)[O-])cc1	14.3 µM	18.4 µM	18.2 µM	
O=C1Nc2ccccc2/C1=C\C(=O)c1ccccc1F	11.8 µM	8.5 µM	17.4 µM	
COc1cc(/C=C/C(=O)CC(=O)/C=C/c2ccc(O)c(OC)c2)ccc1O [CURCUMIN]	19.5 µM		26.2 µM	growth inhibition (GI) [5]: Active; Activity [7]: Non-Toxic; Activity [10]: Non-Toxic; Activity [16]: Active; Activity [12]: Active; Activity [17]: Active
COc1ccccc1C(=O)/C=C1/C(=O)Nc2ccccc21	10.2 µM	10.2 µM	16.3 µM	
O=C1Nc2ccccc2/C1=C\C(=O)c1ccc(Cl)cc1	6.9 µM	6.5 µM	8.5 µM	
O=C1Nc2ccccc2/C1=C\C(=O)c1ccc(Br)cc1	9 µM	11.5 µM	10.2 µM	
O=C1Nc2ccccc2/C1=C\C(=O)c1ccc(F)cc1	11.1 µM	7.5 µM	12.4 µM	
COc1cc(C(=O)/C=C2/C(=O)Nc3ccccc32)cc(OC)c1OC	13.9 µM	10.9 µM	18.3 µM	
CC(=O)Nc1cccc(C(=O)/C=C2/C(=O)Nc3ccccc32)c1	9.1 µM	12.3 µM	14.1 µM	
O=C1Nc2ccccc2/C1=C\C(=O)c1ccccc1Cl	9.1 µM	7.7 µM	12.8 µM	
